According to ChEMBL document CHEMBL1201862, “PubChem BioAssay data set” (2004):
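Protocol summary: plate cells (96-well), add compound at 5 concentrations, incubate 48 h, interpolate endpoints linearly. GI50 marks 50% less growth.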 Active and inactive are the calls of the source. Cut-off read from the data, not from the text of the source: active = GI50 up to about 1.1 µM and inactive = higher.

Tests used:
Assay in all cases: growth of human tumour cells (NCI), 48 h
MDA-MB-435 = test system: MDA-MB-435
HOP-92 = test system: HOP-92
K562 = test system: K562
SF-268 = test system: SF-268
OVCAR-8 = test system: OVCAR-8
CCRF-CEM = test system: CCRF-CEM
NCI-H226 = test system: NCI-H226
COLO 205 = test system: COLO 205
RPMI-8226 = test system: RPMI-8226
PC-3 = test system: PC-3
TK-10 = test system: TK-10
HCT-116 = test system: HCT-116
EKVX = test system: EKVX
HT-29 = test system: HT-29
SF-539 = test system: SF-539
SK-OV-3 = test system: SK-OV-3
CAKI-1 = test system: CAKI-1
SK-MEL-2 = test system: SK-MEL-2
ACHN = test system: ACHN
RXF 393 = test system: RXF 393

SMILES | GI50 (MDA-MB-435) | GI50 (HOP-92) | GI50 (K562) | GI50 (SF-268) | GI50 (OVCAR-8) | GI50 (CCRF-CEM) | GI50 (NCI-H226) | GI50 (COLO 205) | GI50 (RPMI-8226) | GI50 (PC-3) | GI50 (TK-10) | GI50 (HCT-116) | GI50 (EKVX) | GI50 (HT-29) | GI50 (SF-539) | GI50 (SK-OV-3) | GI50 (CAKI-1) | GI50 (SK-MEL-2) | GI50 (ACHN) | GI50 (RXF 393)
COC(=O)/C=C\C(C#N)(C#N)/N=C/c1ccc(C)cc1 | 2.21 µM (inactive) | 1.09 µM (active) | 3.04 µM (inactive) | 3.78 µM (inactive) | 2.25 µM (inactive) | 0.0673 µM (active) | 8.75 µM (inactive) | 1.97 µM (inactive) | 0.586 µM (active) | 6.44 µM (inactive) | 1.8 µM (inactive) | 1.76 µM (inactive) | 14.4 µM (inactive) | 3.8 µM (inactive) | 4.38 µM (inactive) | 17.6 µM (inactive) | 2.59 µM (inactive) | 16.3 µM (inactive) | 2.3 µM (inactive) | 1.9 µM (inactive)
NC(=S)NS(=O)(=O)c1ccc(F)cc1 | > 100 µM (inactive) | > 100 µM (inactive) | > 100 µM (inactive) | > 100 µM (inactive) | > 100 µM (inactive) | > 100 µM (inactive) | > 100 µM (inactive) | > 100 µM (inactive) | > 100 µM (inactive) | > 100 µM (inactive) | > 100 µM (inactive) | > 100 µM (inactive) | > 100 µM (inactive) | > 100 µM (inactive) | > 100 µM (inactive) | > 100 µM (inactive) | > 100 µM (inactive) | > 100 µM (inactive) | > 100 µM (inactive) | > 100 µM (inactive)
NC(=S)NN=C1Cc2ccccc2C1 | > 100 µM (inactive) | > 100 µM (inactive) | > 100 µM (inactive) | > 100 µM (inactive) | > 100 µM (inactive) | > 100 µM (inactive) | > 100 µM (inactive) | > 100 µM (inactive) | > 100 µM (inactive) | > 100 µM (inactive) | > 100 µM (inactive) | > 100 µM (inactive) | 42.3 µM (inactive) | > 100 µM (inactive) | > 100 µM (inactive) | > 100 µM (inactive) | > 100 µM (inactive) | > 100 µM (inactive) | > 100 µM (inactive) | > 100 µM (inactive)
Cc1cccc2c(N)c3cccc(C(=O)NCC[N+](C)(C)Cc4ccc([N+](=O)[O-])s4)c3nc12 | 21.9 µM (inactive) | 16 µM (inactive) | 2.88 µM (inactive) | 4.78 µM (inactive) | 9.29 µM (inactive) | 1.85 µM (inactive) | 6.68 µM (inactive) | 4.9 µM (inactive) | 2.62 µM (inactive) | 7 µM (inactive) | 20.4 µM (inactive) | 3.83 µM (inactive) | 14.1 µM (inactive) | 4.07 µM (inactive) | 4.93 µM (inactive) | 19.6 µM (inactive) | 2.37 µM (inactive) | 41 µM (inactive) | 2.69 µM (inactive) | 8.36 µM (inactive)
Cc1oc2c(c1C(=O)c1ccccc1)C(=O)c1ccccc1C2=O | 1.58 µM (inactive) | 2.21 µM (inactive) | 2.23 µM (inactive) | 10.8 µM (inactive) | 5.06 µM (inactive) | 2.16 µM (inactive) | 13.9 µM (inactive) | 13.9 µM (inactive) | 2.85 µM (inactive) | 6.79 µM (inactive) | 19.1 µM (inactive) | 3.3 µM (inactive) | 12.6 µM (inactive) | 17.8 µM (inactive) | 10.6 µM (inactive) | 12.5 µM (inactive) | 4.23 µM (inactive) | 3.26 µM (inactive) | 4.65 µM (inactive) | 3.48 µM (inactive)
